Measurements as given in PubChem BioAssay AID1347039 (Raney Lab, University of Arkansas for Medical Sciences …, 2019).
Records with an inconclusive call do not appear. Calls of active or inactive are those of the source.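 Rule for the calls: active = remaining helicase activity under 10% at 30 micromolar; inconclusive = remaining helicase activity between 10% and 50%; inactive = remaining helicase activity over 50%.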

System: Hepatitis C virus NS3 helicase
Test: inhibition of NS3 duplex DNA unwinding by HCV helicase – biochemical, fluorescence, FAM-quenched DNA substrate, full-length NS3, primary screen (AID 1347039)
Details: recombinant NS3 DNA unwinding, FAM fluorescence rate; at 30 µM; active compounds read low

COc1ccc2c(c1)c(C=C1C(=O)NC(=S)NC1=O)cn2C(=O)c1ccccc1
remaining helicase activity: 79.2% (inactive)

O=C1NC(=S)NC(=O)C1=Cc1cn(C(=O)c2ccccc2Br)c2ccc(Br)cc12
remaining helicase activity: 53.2% (inactive)

O=C1NC(=S)NC(=O)C1=Cc1cn(C(=O)c2cccc3ccccc23)c2ccccc12
remaining helicase activity: 22.3% (inactive)

COc1ccc(C(=O)n2cc(C=C3C(=O)NC(=S)NC3=O)c3cc(Br)ccc32)cc1
remaining helicase activity: 61.9% (inactive)

COc1ccc(C(=O)n2cc(C=C3C(=O)NC(=S)NC3=O)c3ccccc32)cc1
remaining helicase activity: 54.6% (inactive)

COc1ccc2c(c1)c(C=C1C(=O)NC(=S)NC1=O)cn2C(=O)c1ccc2ccccc2c1
remaining helicase activity: 6.3%

O=C1NC(=S)NC(=O)C1=Cc1cn(C(=O)c2ccc3ccccc3c2)c2ccccc12
remaining helicase activity: 0%

COc1ccc(C(=O)n2cc(C=C3C(=O)NC(=S)NC3=O)c3cc(OC)ccc32)cc1
remaining helicase activity: 55.2% (inactive)

O=C1NC(=S)NC(=O)C1=Cc1cn(C(=O)c2cccc3ccccc23)c2ccc(Cl)cc12
remaining helicase activity: 33.4% (inactive)

COc1ccc2c(c1)c(C=C1C(=O)NC(=S)NC1=O)cn2C(=O)c1cccc2ccccc12
remaining helicase activity: 0%

O=C1NC(=S)NC(=O)C1=Cc1cn(C(=O)c2ccccc2)c2ccc(Cl)cc12
remaining helicase activity: 73.2% (inactive)

O=C1NC(=S)NC(=O)C1=Cc1cn(C(=O)c2ccc(F)cc2)c2ccccc12
remaining helicase activity: 51.1% (inactive)

O=C1NC(=S)NC(=O)C1=Cc1cn(C(=O)c2ccccc2Br)c2ccc(Cl)cc12
remaining helicase activity: 83.8% (inactive)

O=C1NC(=S)NC(=O)C1=Cc1cn(C(=O)c2ccc3ccccc3c2)c2ccc(Cl)cc12
remaining helicase activity: 73.3% (inactive)

O=C1NC(=S)NC(=O)C1=Cc1cn(C(=O)c2ccccc2)c2ccccc12
remaining helicase activity: 56.3% (inactive)

O=C1NC(=S)NC(=O)C1=Cc1cn(C(=O)c2ccccc2Br)c2ccccc12
remaining helicase activity: 63.5% (inactive)

COc1ccc(C(=O)n2cc(C=C3C(=O)NC(=S)NC3=O)c3cc(Cl)ccc32)cc1
remaining helicase activity: 53.2% (inactive)
